Test results taken from article PMC9019904, “AD Informer Set: Chemical tools to facilitate Alzheimer's disease drug discovery” (Alzheimer's & Dementia : Translational Research & Clinical …, 2022).

Experiments:
[1] = tested on: HMC3 (human microglia) cell line; assay: pHrodo-myelin phagocytosis/cell viability high content imaging assay: viability (cell count, nuclear area, nuclear intensity); conditions: 48 hours treatment
Method in brief: (§1)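 Duplicate single-point screen at 10 μM over 48 h, combined with pHrodo-myelin phagocytosis during the last 20 h. Cytotoxicity is taken from imaged cell counts and nuclear intensity changes, normalized to untreated wells as % control.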

[2] = tested on: BV2 (mouse microglia) cell line; assay: as above; conditions: 48 hours treatment
Method in brief: as §1

[3] = tested on: HMC3 (human microglia) cell line; assay: pHrodo-myelin phagocytosis/cell viability high content imaging assay: phagocytosis signal; assay type: cell-based
Method in brief: (§2)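 Imaging at high content captured pHrodo-myelin uptake about 22 hours after its addition, alongside a viability read-out from the same cells. Three measurements were derived, with intensity increase marking early apoptosis and decrease marking later apoptosis.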

[4] = tested on: BV2 (mouse microglia) cell line; assay: as above; assay type: cell-based
Method in brief: as §2

[5] = HMC3 cells, 10 uM compound, 48 hours treatment, pHrodo-myelin final 20 hours
[6] = BV2 cells, 10 uM compound, 48 hours treatment, pHrodo-myelin final 20 hours
[7] = HMC3, compound 10 uM, pHrodo-myelin
[8] = BV2, compound 10 uM, pHrodo-myelin

Row | SMILES | 1. Cell count (% control) ([1]; HMC3 cells, 10 uM compound) | 2. Nuclear Area (% Control) ([1]; HMC3 cells, 10 uM compound) | 3. Nuclear DNA Intensity (% control) ([1]; HMC3 cells, 10 uM compound) | 1. Cell count (% control) ([2]; BV2 cells, 10 uM compound) | 2. Nuclear Area (% Control) ([2]; BV2 cells, 10 uM compound) | 3. Nuclear DNA Intensity (% control) ([2]; BV2 cells, 10 uM compound) | 4. Phagocytosis (% control) [3, 5] [% control] | 4. Phagocytosis (% control) [4, 6] [% control] | 1. Cell count (% control) ([1]; HMC3, compound 10 uM) | 2. Nuclear Area (% Control) ([1]; HMC3, compound 10 uM) | 3. Nuclear DNA Intensity (% control) ([1]; HMC3, compound 10 uM) | 1. Cell count (% control) ([2]; BV2, compound 10 uM) | 2. Nuclear Area (% Control) ([2]; BV2, compound 10 uM) | 3. Nuclear DNA Intensity (% control) ([2]; BV2, compound 10 uM) | 4. Phagocytosis (% control) [3, 7] [% control] | 4. Phagocytosis (% control) [4, 8] [% control]
1 | COc1cc(C(=O)NS(=O)(=O)c2ccccc2C)ccc1Cc1cn(C)c2ccc(NC(=O)OC3CCCC3)cc12 [UNC10121228A] | 110.1 | 100.7 | 103.6 | 90.6 | 103.2 | 103.9 | 87.2 | 129.0 |  |  |  |  |  |  |  | 
2 | CCCCCCOc1cc2c(cc1N(C)c1ncc(C(=O)O)cn1)C(C)(C)CCC2(C)C [UNC10302707A] |  |  |  |  |  |  |  |  | 137.9 | 106.3 | 90.2 | 135.9 | 104.8 | 101.8 | 53.6 | 161.8
3 | CC(C)[C@H](O)C(=O)N[C@@H](C)C(=O)N[C@@H]1C(=O)N(C)CCc2ccccc21 [UNC10303095A] | 156.2 | 97.1 | 97.3 | 134.6 | 102.1 | 104.4 | 70.8 | 150.0 |  |  |  |  |  |  |  | 
4 | CCN(C)C(=O)Oc1cccc([C@H](C)N(C)C)c1 [UNC10303091A] | 141.4 | 98.9 | 95.5 | 139.1 | 103.4 | 100.1 | 80.4 | 166.0 |  |  |  |  |  |  |  | 
5 | CCc1cc2c(cc1N1CCC(N3CCOCC3)CC1)C(C)(C)c1[nH]c3cc(C#N)ccc3c1C2=O [UNC10245077A] |  |  |  |  |  |  |  |  | 0.0 | 0.0 | 0.0 | 128.2 | 94.3 | 130.0 | 22.4 | 169.6
6 | Cc1ccc(-n2nc(C(C)(C)C)cc2NC(=O)Nc2ccc(OCCN3CCOCC3)c3ccccc23)cc1 [UNC10225354A] | 144.2 | 99.1 | 93.2 | 127.7 | 105.8 | 105.3 | 109.7 | 236.7 |  |  |  |  |  |  |  | 
7 | CC(C)(O)c1coc(S(=O)(=O)[N-]C(=O)Nc2c3c(cc4c2CCC4)CCC3)c1.[Na+] [UNC10302861A] | 119.4 | 98.5 | 105.7 | 111.0 | 101.8 | 106.4 | 105.6 | 115.8 |  |  |  |  |  |  |  | 
8 | CCCN(CC1CC1)c1nc(C)nc(Nc2c(Cl)cc(Cl)cc2Cl)c1Cl.Cl [UNC10303155A] |  |  |  |  |  |  |  |  | 120.1 | 96.1 | 105.3 | 40.3 | 117.9 | 98.5 | 86.3 | 323.0
9 | Cc1cc(SCc2sc(-c3ccc(C(F)(F)F)c(F)c3)nc2C)ccc1OCC(=O)O [UNC10302862A] | 84.5 | 103.8 | 93.4 | 73.4 | 105.0 | 104.6 | 107.7 | 104.2 |  |  |  |  |  |  |  | 
10 | O=C(O)CCCc1nc(-c2ccc(Cl)c(Cl)c2)c(-c2ccccc2)o1 [UNC8366A] |  |  |  |  |  |  |  |  | 151.8 | 102.0 | 90.3 | 118.0 | 106.9 | 102.3 | 67.3 | 161.9
11 | CCOC(=O)c1cccc(CNc2ccc(N(C)C(=O)Nc3ccccc3)cc2)c1 [UNC10302705A] |  |  |  |  |  |  |  |  | 79.1 | 96.2 | 114.6 | 77.7 | 107.2 | 109.9 | 139.7 | 194.2
12 | O=C(NNc1nc2cc(F)ccc2n2cccc12)c1cnccn1 [UNC10302850A] | 86.1 | 94.6 | 106.5 | 29.4 | 129.5 | 94.0 | 103.0 | 362.4 |  |  |  |  |  |  |  | 
13 | C=C1C(=O)[C@]23[C@H](O)[C@H]1CC[C@H]2[C@@]12CO[C@]3(O)[C@@H](O)[C@@H]1C(C)(C)CC[C@@H]2O [UNC10302873A] |  |  |  |  |  |  |  |  | 42.7 | 59.1 | 208.5 | 12.1 | 120.3 | 80.8 | 0.0307 | 153.4
14 | COc1nc(OCc2cccc(-c3ccccc3)c2C)ccc1CNCCNC(C)=O.Cl [UNC10302832A] | 35.9 | 69.0 | 171.8 | 21.6 | 92.8 | 35.4 | 0.4 | 0.00132 |  |  |  |  |  |  |  | 
15 | Nc1ncnc2c1nc(Br)n2[C@@H]1O[C@@H]2COP(=O)([O-])O[C@H]2[C@H]1O.[Na+] [UNC10302698A] |  |  |  |  |  |  |  |  | 137.9 | 97.3 | 96.1 | 97.0 | 105.8 | 98.8 | 80.6 | 164.5
16 | CCCCCOc1cc2c(cc1-c1cc(/C=C/C(=O)O)ccc1O)C(C)(C)CCC2(C)C [UNC10302971A] | 103.0 | 101.2 | 101.8 | 104.0 | 103.5 | 104.7 | 107.7 | 103.8 |  |  |  |  |  |  |  | 
